# From article PMC8131363 (Scientific Reports, 2021)
# Experiments:
# domestic short hair cats = experiment: two-bottle choice test, cat water panel; format: in vivo, Felis catus; conditions: for intake of compound solution compared to water: n = 24, 18 h, CaCl2 at 8 mM; for preference for umami amino acid mix with compound vs amino acid mix alone: n = 24, mix 15 mM L-His, 15 mM L-Trp, 15 mM L-Phe
# Procedure: Healthy neutered adult domestic short hair cats (Felis catus) formed the panel for all the choice tests described here (n = 24). […] All the cats taking part in the panel were individually fed dry adult cat food twice per day to their individual Maintenance Energy Requirements (MER). On test days, the cats were housed during 18 h overnight in purpose-built, behaviourally-enriched lodges. During the 18 h exposure, the cats only had access to the water solutions in the two-bottle testing apparatus, however they had free access to drinking water for the rest of the day when they were housed in a social group within an environmentally enriched room. All accommodation complied with the Code of Practice for Animal (Scientific Procedures) Act 1986. All solutions were made with deionised water (Purite, UK). All taste-active substances were food-grade or of the highest available purity. In some cases, salts were purchased instead of the pure compound due to solubility, stability or availability reasons. The in vivo testing was a two-bottle choice test and the methodology was adapted from[23]. All animal studies were in alignment with the Mars Animal Research Policy (Mars.com). These studies follow the 3Rs approach to experimentation with animals in scientific research[59] and were approved by the Waltham Animal Welfare and Ethical Review Board, and all the methods were carried-out in accordance with local guidelines and regulations, including the ARRIVE guidelines. […] The drinkers contained the test solution or the control solution, and the position of the drinkers presented to the cats was changed every day to control for any side bias, and each solution was offered twice to each cat. The cats were also offered at the same time as the water solutions, 50% of their daily food allowance. After 30 min. the food was removed and the cats were left in their individual lodges overnight, with access to the drinkers for 18 h. The next day the drinkers were weighed, and the remaining quantities were recorded as refused amounts. Total intakes were calculated using the difference of the offered and refused amounts. A correction for evaporation and any solution spillage was also performed on each data point. Using a bespoke statistical analysis toolkit, based on R software (R Foundation, Vienna, Austria), a mixed model analysis was performed on the difference in intake (g) between water solutions containing the different taste compound, including cat (random) as a factor and weighting by grouped cat specific variability. This was used to test the mean intake difference versus 0, i.e. no difference, at a 5% level. The mean difference in intake was reported with a 95% confidence interval. All individual tests were then combined into a single model and the difference between the tastant pairs (i.e. both conditions containing the kokumi tastant in water vs. in the umami amino acid mix) were directly compared to measure the impact of the compound on the intake of either water or the umami mix. Any data errors (e.g. following manual error such as solution spillage, overflow) were removed from the final data set for analysis.
# cCaSR = molecular target: T1, cCaSR (Felis catus, UniProt C7FF08); experiment: cCaSR PAM luminescence assay, double injection with 0.5 mM CaCl2, HEK293/T-REx/natClytin-cCaSR; conditions: Supplementary Table I, PAM assay, dash = no activity
# T1 sequence (C7FF08 1-1081): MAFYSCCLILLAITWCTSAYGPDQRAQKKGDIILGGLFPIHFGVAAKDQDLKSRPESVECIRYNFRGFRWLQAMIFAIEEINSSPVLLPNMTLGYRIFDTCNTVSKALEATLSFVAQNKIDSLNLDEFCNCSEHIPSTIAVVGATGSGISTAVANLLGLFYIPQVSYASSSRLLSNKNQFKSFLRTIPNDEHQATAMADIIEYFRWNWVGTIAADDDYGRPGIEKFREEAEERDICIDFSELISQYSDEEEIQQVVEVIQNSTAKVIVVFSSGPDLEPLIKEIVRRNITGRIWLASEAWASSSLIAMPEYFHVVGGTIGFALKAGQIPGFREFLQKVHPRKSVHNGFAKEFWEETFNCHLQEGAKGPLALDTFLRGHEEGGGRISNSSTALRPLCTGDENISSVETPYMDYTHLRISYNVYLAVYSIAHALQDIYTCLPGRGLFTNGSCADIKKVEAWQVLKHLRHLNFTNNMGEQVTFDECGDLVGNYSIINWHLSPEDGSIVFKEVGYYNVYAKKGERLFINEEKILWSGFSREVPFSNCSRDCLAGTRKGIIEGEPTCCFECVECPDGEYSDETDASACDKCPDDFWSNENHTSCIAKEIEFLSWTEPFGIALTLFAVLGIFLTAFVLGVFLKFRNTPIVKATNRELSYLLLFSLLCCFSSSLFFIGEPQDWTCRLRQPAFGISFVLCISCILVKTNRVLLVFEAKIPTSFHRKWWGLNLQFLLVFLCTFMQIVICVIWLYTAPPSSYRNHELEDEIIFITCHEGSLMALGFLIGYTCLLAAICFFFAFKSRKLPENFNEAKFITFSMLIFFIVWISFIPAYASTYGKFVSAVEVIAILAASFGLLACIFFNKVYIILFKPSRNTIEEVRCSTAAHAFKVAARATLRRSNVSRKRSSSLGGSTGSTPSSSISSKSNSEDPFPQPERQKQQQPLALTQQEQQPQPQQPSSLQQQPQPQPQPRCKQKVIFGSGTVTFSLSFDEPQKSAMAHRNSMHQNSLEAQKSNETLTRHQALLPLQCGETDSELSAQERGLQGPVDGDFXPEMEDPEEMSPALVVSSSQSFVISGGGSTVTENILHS
# Procedure: The cCaSR expression constructs were stably-transfected in the mammalian cell line, HEK293/ T-REx/ natClytin. Transfections were performed by electroporation, following standard methodologies. Stably-transfected target and mock pools were obtained after 2–3 weeks of antibiotic selection, and clones were selected for testing. In order to evaluate the activity of each clone, 10 mM Calcium was injected onto the cells and the resulting luminescence was measured.
# All compounds screened on the receptor were analysed in parallel with Calcium, on the HEK293/ T-REx/ natClytin-cCaSR or hCaSR stable or transient cell lines. Prior to the measurements, the cells were incubated with 10 µM of photoprotein substrate, Coelenterazine, prepared in Calcium-free Tyrode’s buffer at 37 °C for 3–4 h. All the data was captured using a FLIPR Tetra (Molecular Devices). A single or double injection protocol was used to capture the data for potential agonists and PAMs, respectively. The compounds tested were all prepared at desired concentration in Calcium-Free Tyrode’s buffer supplemented with 0.5% DMSO. For the activity determination of potential agonists, the single injection protocol was used, with CaCl2 as the positive control for each run. Each compound was injected into specific wells and the luminescence signal was measured for 1 min. for each compound. For potential PAMs, the double injection protocol was used. The first injection was identical to the one described above for potential agonists. A 20 min. resting period followed the first injection and a second injection of 0.5 mM CaCl2 in Calcium-free Tyrode’s buffer was injected to all wells, and the resulting luminescence signal was again measured for 1 min for each compound.
# The half maximal effective concentrations (EC50) were identified by nonlinear regression using a variable slope model with the equation Y = Bottom + (X^Hillslope)*(Top–Bottom)/ (X^HillSlope + EC50^HillSlope), where Y is the agonist concentration, Top and Bottom are the plateaus in the same units as Y and HillSlope is the Slope factor or Hill slope. All calculations and plots were done using GraphPad Prism 8. […] In these cases the EC50 was noted as being higher than the maximum concentration used in the assay.
Structure (SMILES),intake of compound solution compared to water (domestic short hair cats),preference for umami amino acid mix with compound vs amino acid mix alone (domestic short hair cats),EC50 PAM (M) (cCaSR)
"[Ca+2].[Cl-].[Cl-] [Ca^2+, CaCl2]",no significant difference,significant preference,-
"[Cl-].[Cl-].[Mg+2] [Mg^2+, MgCl2]",significantly lower acceptance,significantly rejected,-
N[C@@H](CCC(=O)N[C@@H](CS)C(=O)NCC(=O)O)C(=O)O [Glutathione],significantly lower acceptance,no statistically significant difference,-
